Experimental data reported in patent US20240158446A1, “CYCLIC COMPOUND HAVING SELECTIVE INHIBITORY ACTION ON KRAS OVER HRAS AND NRAS” (CHUGAI SEIYAKU KABUSHIKI KAISHA, priority 2021, published 2024).
Where two headings read alike, the source gives them in different places. Where a SMILES comes first, the peptide text is derived from it. Bridges are numbered along the chain shown (N, C = ends). [ ]: non-standard residue; d: D form. The star is where a group is joined. hPhe(3-Cl-4-CF3) = N[C@@H](CCc1ccc(C(F)(F)F)c(Cl)c1)C(=O)O; NPrPhe(4-CF3) = CCCN[C@@H](Cc1ccc(C(F)(F)F)cc1)C(=O)O; NMeGly(cPent) = CN[C@H](C(=O)O)C1CCCC1; Pro(4,4-F2) = O=C(O)[C@@H]1CC(F)(F)CN1; Hyp = O=C(O)[C@@H]1C[C@@H](O)CN1; NMeD = CN[C@@H](CC(=O)O)C(=O)O; NMeL = CN[C@@H](CC(C)C)C(=O)O; Morpholide = C1CN(*)CCO1; NMeA = CN[C@@H](C)C(=O)O; Aze = O=C(O)[C@@H]1CCN1; Ac4c = NC1(C(=O)O)CCC1; Ac3c = NC1(C(=O)O)CC1; Sar = CNCC(=O)O

Key:
[1] = target: GDP-bound HRAS wild-type protein (Homo sapiens, UniProt P01112); assay: Binding to HRAS by surface plasmon resonance (SPR), Single Cycle Kinetics; conditions: SPR, GDP-bound HRAS wild-type protein vs GDP-bound KRAS wild-type protein
Sequence of GDP-bound HRAS wild-type protein (P01112 whole entry): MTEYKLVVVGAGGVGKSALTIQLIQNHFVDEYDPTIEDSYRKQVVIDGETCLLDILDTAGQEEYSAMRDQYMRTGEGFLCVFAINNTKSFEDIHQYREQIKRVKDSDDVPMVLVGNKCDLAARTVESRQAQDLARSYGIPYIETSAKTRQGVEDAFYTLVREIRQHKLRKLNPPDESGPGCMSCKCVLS

[2] = target: GDP-bound NRAS wild-type protein (Homo sapiens, UniProt P01111); assay: Binding to NRAS by surface plasmon resonance (SPR), Single Cycle Kinetics; conditions: SPR, GDP-bound NRAS wild-type protein vs GDP-bound KRAS wild-type protein
Sequence of GDP-bound NRAS wild-type protein (P01111 whole entry): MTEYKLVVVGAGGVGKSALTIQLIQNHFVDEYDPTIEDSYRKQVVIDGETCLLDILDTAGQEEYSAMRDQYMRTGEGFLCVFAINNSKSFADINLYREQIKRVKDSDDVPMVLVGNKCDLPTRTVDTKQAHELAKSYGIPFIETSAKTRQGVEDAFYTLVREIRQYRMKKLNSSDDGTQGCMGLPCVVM

[3] = target: GDP-bound KRAS wild-type protein (Homo sapiens, UniProt P01116); assay: Binding to KRAS by surface plasmon resonance (SPR), Single Cycle Kinetics; conditions: GDP-bound KRAS wild-type protein, read-out: KRAS KD
Sequence of GDP-bound KRAS wild-type protein (P01116 whole entry): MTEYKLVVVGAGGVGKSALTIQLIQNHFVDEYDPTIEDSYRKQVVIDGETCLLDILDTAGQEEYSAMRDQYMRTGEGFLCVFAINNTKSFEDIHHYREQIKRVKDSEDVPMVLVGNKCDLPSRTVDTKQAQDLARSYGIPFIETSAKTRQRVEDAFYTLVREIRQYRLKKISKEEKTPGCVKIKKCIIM

[4] = SPR Single Cycle Kinetics, 1:1 binding model

SMILES	Kd ([3]; SPR, Single Cycle Kinetics)	Kd [3, 4]	HRAS/KRAS (ratio of KD value for HRAS to KD value for KRAS) [1]	NRAS/KRAS (ratio of KD value for NRAS to KD value for KRAS) [2]	HRAS/KRAS (ratio of KD value with respect to HRAS to KD value with respect to KRAS) [1]	NRAS/KRAS (ratio of KD value with respect to NRAS to KD value with respect to KRAS) [2]
CC[C@H](C)[C@@H]1NC(=O)[C@H](COC)N(C)C(=O)C[C@@H](C(=O)N(C)C)N(C)C(=O)[C@H](C2CCCC2)N(C)C(=O)C2(CC(C)(C)C2)NC(=O)[C@@H]2C[C@@H](C)CN2C(=O)[C@H](CCc2ccc(C(F)(F)F)c(OC)c2)NC(=O)CN(C)C(=O)[C@H](Cc2ccc(C)cc2)N2CC/C=C\C[C@@H](C2=O)N(C)C(=O)CN(C)C1=O [PP2387]	110 pM	–	A (a compound having 10 or more and less than 20 is denoted as A)	A (a compound having 10 or more and less than 20 is denoted as A)	–	–
CCO[C@@H]1C[C@H]2C(=O)NC3(CCCC3)C(=O)N(C)[C@@H](C3CCCC3)C(=O)N(C)[C@H](C(=O)N3CCOCC3)CC(=O)N(C)[C@@H](COC)C(=O)N[C@@H]([C@@H](C)CC)C(=O)N(C)CC(=O)N(C)[C@H]3CCCCCN(C3=O)[C@@H](Cc3ccc(C(F)(F)F)cc3)C(=O)N(C)CC(=O)N[C@@H](CCc3cc(F)c(C(F)(F)F)c(F)c3)C(=O)N2C1 [PP0841]	730 pM	–	B (a compound having 3 or more and less than 10 is denoted as B)	B (a compound having 3 or more and less than 10 is denoted as B)	–	–
CC[C@H](C)[C@@H]1NC(=O)[C@H](C)N(C)C(=O)C[C@@H](C(=O)N2CCOCC2)N(C)C(=O)[C@H](C2CCCC2)N(C)C(=O)C2(CCCC2)NC(=O)[C@@H]2CCCN2C(=O)[C@H](CCc2cc(F)c(C(F)(F)F)c(F)c2)NC(=O)CN(C)C(=O)[C@H](Cc2ccc(C(F)(F)F)cc2)N2CCCCC[C@@H](C2=O)N(C)C(=O)CN(C)C1=O [PP0487]	–	1700 pM	–	–	B (a compound having 3 or more and less than 10 is denoted as B)	B (a compound having 3 or more and less than 10 is denoted as B)

Continued, in another order:

Kd ([3]; SPR, Single Cycle Kinetics)	Kd [3, 4]	SMILES	HRAS/KRAS (ratio of KD value for HRAS to KD value for KRAS) [1]	NRAS/KRAS (ratio of KD value for NRAS to KD value for KRAS) [2]	HRAS/KRAS (ratio of KD value with respect to HRAS to KD value with respect to KRAS) [1]	NRAS/KRAS (ratio of KD value with respect to NRAS to KD value with respect to KRAS) [2]
–	210 pM	CC[C@H](C)[C@@H]1NC(=O)[C@H](CC(C)C)N(C)C(=O)C[C@@H](C(=O)N2CCOCC2)N(C)C(=O)[C@H](C2CCCCC2)N(C)C(=O)C2(CCCC2)NC(=O)[C@@H]2CCCN2C(=O)[C@H](CCc2cc(F)c(C(F)(F)F)c(F)c2)NC(=O)CN(C)C(=O)[C@H](Cc2ccc(C(F)(F)F)cc2)N2CCCC[C@@H](C2=O)N(C)C(=O)CN(C)C1=O [PP0567]	–	–	B (a compound having 3 or more and less than 10 is denoted as B)	B (a compound having 3 or more and less than 10 is denoted as B)
–	180 pM	CCCN1C(=O)[C@@H]2CCN2C(=O)[C@H](C)N(C)C(=O)[C@H]([C@@H](C)CC)NC(=O)[C@H](CC(C)C)N(C)C(=O)C[C@@H](C(=O)N(C)C)NC(=O)[C@H](C2CCCC2)N(C)C(=O)C2(CCC2)NC(=O)[C@@H]2C[C@@H](OCC)CN2C(=O)[C@H](CCc2ccc(C(F)(F)F)c(Cl)c2)NC(=O)CN(C)C(=O)[C@@H]1Cc1ccc(C(F)(F)F)cc1 [PP0384] ([NMeL]I[NMeA][Aze][NPrPhe(4-CF3)][Sar][hPhe(3-Cl-4-CF3)][Hyp](Et)[Ac4c][NMeGly(cPent)]D-NMe2; lactam N-11)	B (a compound having 3 or more and less than 10 is denoted as B)	C (A compound having a KD ratio of 0.1 or more and less than 3 is denoted as C)	–	–
–	220 pM	CCCN1C(=O)[C@@H]2CCN2C(=O)[C@H](C)N(C)C(=O)[C@H]([C@@H](C)CC)NC(=O)[C@H](CC(C)C)N(C)C(=O)C[C@@H](C(=O)N2CCOCC2)N(C)C(=O)[C@H](C2CCCC2)N(C)C(=O)C2(CC2)NC(=O)[C@@H]2CCCN2C(=O)[C@H](CCc2ccc(C(F)(F)F)c(Cl)c2)NC(=O)CN(C)C(=O)[C@@H]1Cc1ccc(C(F)(F)F)cc1 [PP0224] ([NMeL]I[NMeA][Aze][NPrPhe(4-CF3)][Sar][hPhe(3-Cl-4-CF3)]P[Ac3c][NMeGly(cPent)][NMeD]-Morpholide; lactam N-11)	B (a compound having 3 or more and less than 10 is denoted as B)	C (A compound having a KD ratio of 0.1 or more and less than 3 is denoted as C)	–	–
–	27 pM	CCCN1C(=O)[C@@H]2CCN2C(=O)CN(C)C(=O)[C@H]([C@@H](C)CC)NC(=O)[C@H](CC(C)C)N(C)C(=O)C[C@@H](C(=O)N(C)C)N(C)C(=O)[C@H](C2CCCC2)N(C)C(=O)C2(CCC2)NC(=O)[C@@H]2CC(F)(F)CN2C(=O)[C@H](CCc2ccc(C(F)(F)F)c(Cl)c2)NC(=O)CN(C)C(=O)[C@@H]1Cc1ccc(C(F)(F)F)cc1 [PP0443] ([NMeL]I[Sar][Aze][NPrPhe(4-CF3)][Sar][hPhe(3-Cl-4-CF3)][Pro(4,4-F2)][Ac4c][NMeGly(cPent)][NMeD]-NMe2; lactam N-11)	–	–	C (A compound having a KD ratio of 0.1 or more and less than 3 is denoted as C)	C (A compound having a KD ratio of 0.1 or more and less than 3 is denoted as C)
